In PMC8360061, “Search for the Active Ingredients from a 2‐Aminothiazole DMSO Stock Solution with Antimalarial Activity” (Chemmedchem, 2021):

Biological target: PfIspE (Plasmodium falciparum, UniProt Q8I470)
Assay: PfIspE enzymatic assay (coupled to PK/LDH, NADH oxidation at 340 nm)
Format: biochemical
Procedure: Firstly, we performed a temperature‐dependent decomposition study of compound 1 at 10 mM concentration in DMSO at room temperature (RT), +4 °C and −20 °C (SI, Section 2.3). […] Besides visual inspection of the colour changes of the test sample (see Table 2), the decomposition was monitored by HRMS and NMR spectroscopy. […] Furthermore, all three samples were tested for their inhibitory activity against PfIspE after the incubation period. […] In the IspE assay, the activity of the target enzyme is coupled to the oxidation of NADH (which can be followed spectrophotometrically at 340 nm) via a cascade of the auxiliary enzymes pyruvate kinase and lactate dehydrogenase (PK/LDH).[10] […] Three samples of compound 1 were tested in PK/LDH assay (Table 2).
Another approach to address this issue is to perform the IspE assay with one or several orthologues of PfIspE. […] The IspE assay setup was identical for both Pf and EcIspE orthologs except for the target enzyme used. One of the setup requirements was that the enzymatic activity of the auxiliary enzymes PK/LDH exceeded the activity of the target enzyme IspE not less than a factor of ten.[10] We investigated, if the inhibition of the auxiliary enzymes may substantially influence the IC50 values obtained from the coupled IspE assay.
1.1 General Procedure for Enzymatic Assay
The cloning, expression and purification of Plasmodium falciparum[1] and Escherichia coli[2,3] and their subsequent assays followed the previously reported procedures .[1] In some specified cases, the tested compound was dissolved in methanol or acetonitrile for the assay .
Due to the nature of the study, some decomposition samples w ere only tested once and thus, for some formal standard error, […]
For the final purified compounds, replicates were measured and standard deviation was calculated at least from two replicates. […]
2.) Decomposition Study Procedure
All reagents and solvents were of commercial quality and used without further purification.

[1] = fresh batch, freshly prepared stock solution

Sequence of PfIspE (Q8I470 entry or part of it): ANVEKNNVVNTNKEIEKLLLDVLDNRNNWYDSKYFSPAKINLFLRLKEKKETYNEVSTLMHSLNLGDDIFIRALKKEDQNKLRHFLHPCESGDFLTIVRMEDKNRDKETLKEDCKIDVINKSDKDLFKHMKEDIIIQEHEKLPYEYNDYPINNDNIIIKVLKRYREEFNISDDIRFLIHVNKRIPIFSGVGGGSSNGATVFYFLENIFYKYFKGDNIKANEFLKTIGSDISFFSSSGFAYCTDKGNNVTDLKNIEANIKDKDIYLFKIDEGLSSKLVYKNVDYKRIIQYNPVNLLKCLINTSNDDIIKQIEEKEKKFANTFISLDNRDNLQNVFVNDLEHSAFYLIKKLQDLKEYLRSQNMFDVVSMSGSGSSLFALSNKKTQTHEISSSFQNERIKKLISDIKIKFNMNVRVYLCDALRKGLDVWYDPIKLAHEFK

Compound: CCn1c(C)cc(-c2csc(Nc3ccccc3C(F)(F)F)n2)c1C [Compound 1]
- IC50 (10 mM DMSO stock stored at +4 °C, measured after 3 months): 16 ± 7 µM
- IC50 (10 mM DMSO stock stored at RT, measured after 3 months): 12 ± 4 µM
- IC50 (10 mM DMSO stock stored at −20 °C, measured after 3 months): > 500 µM
- IC50 (10 mM stock in ACN at RT, 0 days of incubation): > 500 µM
- IC50 (10 mM stock in ACN at RT, 5 days of incubation): > 500 µM
- IC50 (10 mM stock in ACN at RT, 7 days of incubation): > 500 µM
- IC50 (10 mM stock in ACN at RT, 9 days of incubation): > 500 µM
- IC50 (10 mM stock in ACN at RT, 12 days of incubation): > 500 µM
- IC50 (10 mM stock in ACN at RT, 14 days of incubation): > 500 µM
- IC50 (10 mM stock in ACN at RT, 16 days of incubation): > 500 µM
- IC50 (10 mM stock in DMSO at RT, 0 days of incubation): > 500 µM
- IC50 (10 mM stock in DMSO at RT, 5 days of incubation): 19 ± 7 µM
- IC50 (10 mM stock in DMSO at RT, 7 days of incubation): 24 ± 9 µM
- IC50 (10 mM stock in DMSO at RT, 9 days of incubation): 10 ± 4 µM
- IC50 (10 mM stock in DMSO at RT, 12 days of incubation): 1 ± 1 µM
- IC50 (10 mM stock in DMSO at RT, 14 days of incubation): 10 ± 4 µM
- IC50 (10 mM stock in DMSO at RT, 16 days of incubation): 11 ± 4 µM
- IC50 (10 mM stock in MeOH at RT, 0 days of incubation): > 500 µM
- IC50 (10 mM stock in MeOH at RT, 5 days of incubation): > 500 µM
- IC50 (10 mM stock in MeOH at RT, 7 days of incubation): > 500 µM
- IC50 (10 mM stock in MeOH at RT, 9 days of incubation): > 500 µM
- IC50 (10 mM stock in MeOH at RT, 12 days of incubation): > 500 µM
- IC50 (10 mM stock in MeOH at RT, 14 days of incubation): > 500 µM
- IC50 (10 mM stock in MeOH at RT, 16 days of incubation): > 500 µM
- IC50 (analytical sample, DMSO at RT, 0 days of incubation, dissolved in methanol shortly before the assay): > 500 µM
- IC50 (analytical sample, DMSO at RT, 1 day of incubation, dissolved in methanol shortly before the assay): > 500 µM
- IC50 (analytical sample, DMSO at RT, 2 days of incubation, dissolved in methanol shortly before the assay): > 500 µM
- IC50 (analytical sample, DMSO at RT, 3 days of incubation, dissolved in methanol shortly before the assay): 486 ± 20 µM
- IC50 (analytical sample, DMSO at RT, 4 days of incubation, dissolved in methanol shortly before the assay): 99 ± 23 µM
- IC50 (fractions of second purification (DMSO, RT, five days), dissolved in ACN): > 1370 µM
- IC50 (fractions of second purification (DMSO, RT, five days), dissolved in MeOH): > 1370 µM
- IC50 [1]: > 500 µM
- PfIspE IC50 [1]: no activity
- IC50 (freshly dissolved compound, in methanol shortly before the assay (Table 4 footnote b)): > 500 µM
- IC50 (old batch (decomposed DMSO stock)): 8 ± 2.8 µM
- IC50 (old decomposed sample, control run at the same time as the temperature study): 10 ± 3 µM
